Experimental data taken from ChEMBL document CHEMBL6127052, “Discovery of membrane-targeting amphiphilic honokiol derivatives containing an oxazolethione moiety to combat methicillin-resistant Staphylococcus aureus (MRSA) infections” (Eur J Med Chem, 2024).
≈ marks a conversion by molar mass, not a printed value.

Legend:
Staphylococcus aureus [1] = assay: Antibacterial activity against methicillin-resistant Staphylococcus aureus clinical isolate M22 by CLSI based micro-broth dilution method; assay type: functional
Staphylococcus aureus [2] = assay: Antibacterial activity against methicillin-resistant Staphylococcus aureus clinical isolate M21 by CLSI based micro-broth dilution method; assay type: functional
Staphylococcus aureus [3] = assay: Antibacterial activity against methicillin-resistant Staphylococcus aureus clinical isolate M20 by CLSI based micro-broth dilution method; assay type: functional
Staphylococcus aureus [4] = assay: Antibacterial activity against methicillin-resistant Staphylococcus aureus clinical isolate M11 by CLSI based micro-broth dilution method; assay type: functional
Staphylococcus aureus [5] = assay: Antibacterial activity against methicillin-resistant Staphylococcus aureus clinical isolate M16 by CLSI based micro-broth dilution method; assay type: functional
Staphylococcus aureus [6] = assay: Antibacterial activity against methicillin-resistant Staphylococcus aureus clinical isolate M12 by CLSI based micro-broth dilution method; assay type: functional
Staphylococcus aureus [7] = assay: Antibacterial activity against methicillin-resistant Staphylococcus aureus clinical isolate M23 by CLSI based micro-broth dilution method; assay type: functional
Staphylococcus aureus [8] = assay: Antibacterial activity against methicillin-resistant Staphylococcus aureus clinical isolate M17 by CLSI based micro-broth dilution method; assay type: functional
Staphylococcus aureus [9] = assay: Antibacterial activity against methicillin-resistant Staphylococcus aureus clinical isolate M13 by CLSI based micro-broth dilution method; assay type: functional
Staphylococcus aureus [10] = assay: Antibacterial activity against methicillin-resistant Staphylococcus aureus N315 by CLSI based micro-broth dilution method; assay type: functional
[11] = Selectivity index, ratio of HC50 for hemolytic activity in sheep erythrocytes to MIC for antibacterial activity against Staphylococcus aureus ATCC 29213; assay type: toxicity, cell-based, RBC
Escherichia coli = assay: Antibacterial activity against Escherichia coli ATCC 25922 by CLSI based micro-broth dilution method; assay type: functional
Staphylococcus aureus [12] = assay: Antibacterial activity against methicillin-resistant Staphylococcus aureus clinical isolate M14 by CLSI based micro-broth dilution method; assay type: functional
Staphylococcus aureus [13] = assay: Antibacterial activity against Staphylococcus aureus ATCC 29213 by CLSI based micro-broth dilution method; assay type: functional
[14] = Hemolytic activity in sheep erythrocytes incubated for 1 hr by absorbance based assay; assay type: toxicity, cell-based, Ovis aries, Erythrocyte

| Compound | MIC (Staphylococcus aureus [1]) [µg/mL] | MIC (Staphylococcus aureus [2]) [µg/mL] | MIC (Staphylococcus aureus [3]) [µg/mL] | MIC (Staphylococcus aureus [4]) [µg/mL] | MIC (Staphylococcus aureus [5]) [µg/mL] | MIC (Staphylococcus aureus [6]) [µg/mL] | MIC (Staphylococcus aureus [7]) [µg/mL] | MIC (Staphylococcus aureus [8]) [µg/mL] | MIC (Staphylococcus aureus [9]) [µg/mL] | MIC (Staphylococcus aureus [10]) [µg/mL] | selectivity ratio [11] | MIC (Escherichia coli) [µg/mL] | MIC (Staphylococcus aureus [12]) [µg/mL] | MIC (Staphylococcus aureus [13]) [µg/mL] | HC50 at 1 h [14] [µg/mL] |
| --- | --- | --- | --- | --- | --- | --- | --- | --- | --- | --- | --- | --- | --- | --- | --- |
| C=CCc1cc(-c2ccc(OCCC[N+](C)(C)CC(=O)NCCCC)c(CC=C)c2)c2oc(=S)n(Cc3ccc(Cl)cc3Br)c2c1.[Br-] | 128 | 128 | > 128 | 128 | 128 | > 128 | 128 | > 128 | > 128 | 128 | 0.7 | > 128 | > 128 | > 128 | 95.8 |
| C=CCc1cc(-c2ccc(OCCC[N+](C)(C)CC(=O)NCCCC)c(CC=C)c2)c2oc(=S)n(Cc3ccccc3Br)c2c1.[Br-] | 32 | 32 | 64 | 64 | 64 | 16 | 64 | 64 | 128 | 128 | > 1.3 | > 128 | 128 | 128 | > 160 |
| C=CCc1cc(-c2ccc(OCCC[N+](C)(C)CC(=O)NCCCC)c(CC=C)c2)c2oc(=S)n(Cc3ccc(C(F)(F)F)cc3)c2c1.[Br-] | 16 | 8 | 4 | 4 | 8 | 4 | 8 | 16 | 4 | 16 | > 20 | > 128 | 8 | 8 | > 160 |
| C=CCc1ccc(O)c(-c2ccc(O)c(CC=C)c2)c1 [HONOKIOL] | 16 (≈ 60.1 µM) | 16 (≈ 60.1 µM) | 8 (≈ 30 µM) | 16 (≈ 60.1 µM) | 16 (≈ 60.1 µM) | 8 (≈ 30 µM) | 16 (≈ 60.1 µM) | 16 (≈ 60.1 µM) | 16 (≈ 60.1 µM) | 8 (≈ 30 µM) | > 2.5 | > 128 | 16 (≈ 60.1 µM) | 32 (≈ 120 µM) | > 80 |
| C=CCc1cc(-c2ccc(OCCC[N+](C)(C)CC(=O)NCCCC)c(CC=C)c2)c2oc(=S)n(Cc3ccc(Cl)c(Br)c3)c2c1.[Br-] | 128 | 128 | > 128 | 128 | > 128 | > 128 | > 128 | 128 | > 128 | > 128 | 1.3 | > 128 | > 128 | > 128 | > 160 |
| C=CCc1cc(-c2ccc(OCCC[N+](C)(C)CC(=O)NCCCC)c(CC=C)c2)c2oc(=S)n(Cc3cc(Br)ccc3F)c2c1.[Br-] | 16 | 8 | 8 | 8 | 8 | 8 | 16 | 32 | 16 | 16 | > 10 | > 128 | 8 | 16 | > 160 |
| C=CCc1cc(-c2ccc(OCCC[N+](C)(C)CC(=O)NCCCC)c(CC=C)c2)c2oc(=S)n(Cc3cccc(OC)c3)c2c1.[Br-] | 16 | 4 | 4 | 4 | 4 | 4 | 8 | 8 | 8 | 8 | > 20 | > 128 | 4 | 8 | > 160 |
| C=CCc1cc(-c2ccc(OCCC[N+](C)(C)CC(=O)NCCCC)c(CC=C)c2)c2oc(=S)n(Cc3ccc(Cl)cc3)c2c1.[Br-] | 8 | 4 | 4 | 4 | 8 | 4 | 16 | 8 | 8 | 32 | 32.5 | > 128 | 16 | 16 | 519 |
| C=CCc1cc(-c2ccc(OCCC[N+](C)(C)CC(=O)NCCCC)c(CC=C)c2)c2oc(=S)n(Cc3ccccc3Cl)c2c1.[Br-] | 8 | 4 | 8 | 4 | 4 | 4 | 4 | 16 | 8 | 16 | 241 | > 128 | 16 | 4 | 965 |
